For this test, the system named is CEM cells HIV-1 protection, formazan growth assay. As to the kind of experiment: NCI AIDS Antiviral Assay. To be noted: for pIC50: measured here: growth of uninfected CEM cells. Summed up: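 CEM (human) cells, HIV-1 infected vs uninfected, 5-point dosing, formazan growth read-out. Retest threshold 50% protection.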

The structures appear in SMILES notation. pEC50, pIC50: −log10 of the molar value. “And” between values parts separate entries of the source, which are not always exact repeats. Equal entries are not always repeated. The source made the active and inactive calls.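 Rule for the calls: active = compounds giving half or more protection of infected cells from virus-caused growth loss, again on retest; inactive = the rest.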 Where a SMILES comes first, the peptide text is derived from it. The star is where a group is joined. Boc = CC(C)(C)OC(=O)*

This note sets out measurements from PubChem BioAssay AID179 (DTP/NCI, 2004).

Regarding `Cn1c(=O)c(C2c3ccccc3Oc3c2c(=O)n(C)c2ccccc32)c(O)c2ccccc21` (stereo unspecified), the pEC50 is < 4.78 and the negative logarithm of the IC50 (pIC50) is < 4.78.
On to `C1=Cc2nc1c(-c1ccccc1)c1ccc([n-]1)c(-c1ccccc1)c1nc(c(-c3ccccc3)c3ccc([n-]3)c2-c2ccccc2)C=C1.[Zn+2]`, for which the pEC50 was < 4.56 and the pIC50 was < 4.56.
For the compound `C[CH2][Sn]([CH2]C)([O]C(=O)c1c(F)cccc1F)[O][Sn]([CH2]C)([CH2]C)[O]C(=O)c1c(F)cccc1F`, the pEC50 is < 4.14 and the pIC50 is 5.32.
For `Cn1ccnc1SC(F)(F)c1nc2ccccc2o1`, in that order: < 3.70 and 3.83.
In the same order, the values of `O=C1Cc2c([nH]c3c(Br)cccc23)-c2ccccc2N1` are < 3.70 and 4.53.
Consider `CSc1nc(C)c2c(n1)SCC2`, for which the pEC50 is < 3.70 and the pIC50 was < 3.70.
Regarding `CCS1=C2C(=O)CC(C)(C)CC2=Nc2ccccc21` (stereo unspecified), the pEC50 was < 3.70 and the pIC50 was < 3.70.
In the case of `Cc1ccccc1NP1(=O)OCCCN1Cc1ccc(Cl)c(Cl)c1` (stereo unspecified), the outcome was inactive.
In the case of `CC1Oc2c(c(=O)oc3ccccc23)[C@@]1(C)CC1C[C@H](C)C(=O)O1` (stereo partly specified), the pEC50 was < 3.70 and the pIC50 is 4.61.
For `Cc1ccc(N2CN(c3ccc(C)cc3)CC(C)(N)C2)cc1`, in that order: < 3.70 and 4.62.
For `c1ccc2c(c1)NC(SSC1Nc3ccccc3S1)S2` (stereo unspecified), in that order: < 3.70 and < 3.70.
For `O=S(=O)(c1ccccc1)S(=O)(=O)c1ccccc1`, in that order: < 4.32 and < 4.32.
For `CCC[CH2][Sn]([Cl])([CH2]CCC)[S]C(=S)NCCNC(=S)[S][Sn]([Cl])([CH2]CCC)[CH2]CCC`, the pEC50 is < 5.70 and the pIC50 is 6.99.
As to `CC(=O)[C@H]1CC[C@H]2[C@@H]3CCC4=CC(=O)CC[C@]4(C)[C@H]3CC[C@]12C`, the pEC50 was < 3.70; the pIC50 was 4.07 and 4.04.
As to `C=CCN(N=O)C(=O)ON1C(=O)CCC1=O`, the pEC50 was < 2.96 and the pIC50 is 3.56.
In the same order, the values of `CN(C)CCNc1ncnc2nc(-c3ccc4ccccc4c3)[nH]c12` are < 3.70 and < 3.70.
As for `Cc1cc(NS(=O)(=O)c2ccc(NC(=O)c3ccc4nc5ccccc5c(Nc5ccc(S(=O)(=O)N=C(N)N)cc5)c4c3)cc2)no1`, the pEC50 was < 4.12 and the pIC50 is 4.61.
In the same order, the values of `Nc1ccc(S(=O)(=O)Nc2nccs2)cc1` are < 3.70 and < 3.70.
Take `CC(C)(C)NC(=S)N/N=C/c1ccccn1`: the pEC50 was < 6.70 and the pIC50 is 7.54.
For `CC(=O)OCC1Cn2c(c(-c3ccccc3)c(=O)[nH]c2=S)O1` (stereo unspecified), in that order: < 3.22 and < 3.22.
In the same order, the values of `Nn1c(=S)[nH]c2ccccc2c1=O` are < 3.70 and < 3.70.
In the same order, the values of `COC(=O)CCCC(=O)C(=Nc1c(Cl)cccc1Cl)NNc1ccc(Cl)cc1` are < 3.70 and 4.45.
On to `Cn1c(=O)cc(NNc2ccc(Br)cc2)[nH]c1=O`, for which the pEC50 was < 3.70 and the pIC50 was 5.21.
Turning to `Cc1cccc2c1CC1(C2)Cc2c(C)cccc2C1=O` (stereo unspecified), the pEC50 is < 3.70 and the negative-log IC50 (pIC50) is 4.43.
For the compound `COC(=O)C(Cc1c[nH]c2ccccc12)NC(=O)C(Cc1c[nH]c2ccccc12)NC(=O)C(Cc1c[nH]c2ccccc12)NC(=O)C(Cc1c[nH]c2ccccc12)NC(=O)C(Cc1c[nH]c2ccccc12)NC(=O)C(Cc1c[nH]c2ccccc12)NC(=O)C(Cc1c[nH]c2ccccc12)NC(=O)OC(C)(C)C` (stereo unspecified) (Boc-WWWWWWW-OMe; configuration not given here), the pEC50 is < 4.00 and the negative-log IC50 (pIC50) was 4.23.
`COc1ccc(-c2nc3c(nc2-c2ccc(OC)cc2)N(C)S(=O)(=O)N=C3N)cc1`: the pEC50 was < 3.70 and the pIC50 was 4.95.
Take `O=C1OC(/C=C/c2ccccc2)Sc2ccccc21` (stereo unspecified): the outcome was inactive.
On to `CCC(=O)[O-].CCC(=O)[O-].N.N.N.N.[Co+3].[O-][Cl+3]([O-])([O-])[O-]`, for which the outcome was inactive.
In the case of `O=C(/C=C/c1ccccc1)CCC1C(=O)NC(=S)NC1=O`, the pEC50 is < 4.07 and the pIC50 was < 4.07.
For `CCCCCn1cnc2c(=S)nc(N)[nH]c21`, the pEC50 is < 3.70 and the pIC50 was 3.71.
In the same order, the values of `CCN1C[C@]2(C)CC[C@H](OC)C34C5C[C@@H]6[C@@H](OC)C[C@@](OC)(C5[C@H]6OCc5ccccc5)C(C13)[C@H](OC(C)=O)[C@@H]42` (stereo partly specified) are < 3.70 and 3.98.
Turning to `O=C(O)/C(Cl)=C(/Cl)C(=O)Nc1cccc(Cl)c1`, the result was inactive.
As to `O=C(Nc1ccn(C2CCC(CO)O2)c(=O)n1)c1ccccc1` (stereo unspecified), the pEC50 is 6.13 and the pIC50 was < 3.70.
In the same order, the values of `O=C(NCCCN1CCN(CCCNC(=O)Nc2cc(Cl)ccc2Cl)CC1)Nc1cc(Cl)ccc1Cl` are < 6.02 and < 6.02.
For `COC(=O)C1=C(C(=O)OC)C(OO)(c2ccccc2)OC1=O` (stereo unspecified), in that order: < 3.70 and < 3.70.
Turning to `Cc1cc(S(=O)(=O)Nc2n[nH]c(Nc3ccc(Cl)cc3)n2)c(S)cc1Cl`, the pEC50 is < 4.00 and the pIC50 is < 4.00.
Take `NC(CCC(=O)NC(CS(=O)(=O)O)C(=O)O)C(=O)O` (stereo unspecified): the pEC50 was < 3.22 and the pIC50 is < 3.22.
Regarding `O=C1CSC(c2cccc(Cl)c2)N1c1ccc(-n2c(-c3ccccc3)nc3ccccc3c2=O)cc1` (stereo unspecified), the pEC50 is < 3.70 and the pIC50 was 3.86.
On to `COC(=O)N1CC[C@@H]2CCC=C(c3cccc4c3OCO4)[C@@H]21`, for which the outcome was inactive.
Still for that read-out and setting: the result for `CC1CC2C3CCC4=CC(=O)C=CC4(C)C3(F)C(O)CC2(C)C1(O)C(=O)COP(=O)(O)O` (stereo unspecified) reads “inactive”.
For the compound `CC(=O)Nc1ccc(/C=C/c2ccc(N=C=S)cc2S(=O)(=O)O)c(S(=O)(=O)O)c1`, the pEC50 is < 4.66 and the pIC50 is < 4.66.
For `CN1C(=O)C(Cl)(C#N)C(c2ccccc2)N(C)C1c1ccccc1` (stereo unspecified), the pEC50 was < 3.70 and the pIC50 is 5.06.
On to `N=c1oc2ccccc2cc1-c1nc2ccccc2[nH]1`, for which the result was inactive.
As for `CCCCOC(=O)CSSCC(=O)OCCCC`, the pEC50 was < 3.70 and the pIC50 is 4.29.
In the same order, the values of `COc1ccc(/C=C2\C=C3OCOC3=CC2=O)cc1` are < 4.97 and < 4.97.
For `Cc1nc2ccccc2c(=O)n1-c1nc2ccccc2s1`, in that order: < 3.70 and 4.50.
In the case of `CCCCCCCCCCCCCCCCCC(=O)OCC(CN(C)CCN(C)C)OC(=O)CCCCCCCCCCCCCCCCC` (stereo unspecified), the result was inactive.
On to `N#C/C(=C\c1ccc(-c2ccccc2)cc1)C(=O)c1ccccc1`, for which the pEC50 was < 4.08 and the negative-log IC50 (pIC50) was 4.56.
In the same order, the values of `CCN(CC)CCC(=O)NC1c2ccc(Cl)cc2Oc2c(C)cccc21` (stereo unspecified) are < 3.70 and 5.02.
For `c1ccc(C2(c3ccccc3)OCCO2)cc1`, in that order: < 3.70 and < 3.70.
In the same order, the values of `CCOC(=O)C(NC(=O)NC(C(=O)OCC)C(=O)OCC)C(=O)OCC` are < 3.70 and < 3.70.
For the compound `CCOC(=O)C(=O)N1C(C)=C(C(=O)OCC)CC(C(=O)OCC)=C1C`, the pEC50 was < 3.70 and the pIC50 was < 3.70.
For `Cc1ccc(-n2cc([Si](C)(C)C)nn2)s1`, the pEC50 is < 3.70 and the pIC50 was 3.91.
In the same order, the values of `Cc1ccc(S(=O)(=O)CC2CCCn3c2c(C#N)c2ccccc23)cc1` (stereo unspecified) are < 3.70 and < 3.70.
Consider `Clc1cnnc2nc[nH]c12`, for which the pEC50 is < 2.94 and the negative-log IC50 (pIC50) was 3.87.
In the same order, the values of `Cc1sc2nc3n(c(=O)c2c1C)N=C(c1ccc([N+](=O)[O-])cc1)CS3` are < 3.70 and < 3.70.
In the same order, the values of `COc1ccc(-c2cc(-c3ccccc3)c(C#N)c(=O)n2C2OC(COC(C)=O)C(OC(C)=O)C(OC(C)=O)C2OC(C)=O)cc1` (stereo unspecified) are < 4.80 and < 4.80.
In the same order, the values of `Nc1ccc(S(=O)(=O)NC(=O)c2ccccc2)cc1` are < 3.70 and < 3.70.
`O=S1(=O)/C(=C\C2CCCCC2)c2c1c(-c1ccccc1)c1ccccc1c2-c1ccccc1`: the pEC50 was < 4.31 and the pIC50 was < 4.31.
For `CCOC(=O)NN(C(=O)OCC)C(=C(c1ccccc1)N1CCOCC1)N(NC(=O)OCC)C(=O)OCC`, the pEC50 was < 3.70 and the pIC50 was < 3.70.
Regarding `CCc1ccc(NCc2cc(OC)c(OC)c(OC)c2)cc1`, the pEC50 was < 3.78; the pIC50 was 6.43 and 6.82.
In the case of `N#Cc1cc2c(cc1Cl)Sc1nccn1S2(=O)=O`, the pEC50 was < 3.70 and the pIC50 was 6.07.
For `COc1cc2c(cc1O)-c1oncc1CCC2`, in that order: < 4.11 and < 4.11.
On to `CCOC(=O)c1ccc(C)c(N=NN(C)C)c1`, for which the result was inactive.
Regarding `O=C1[C@H]2ON(c3ccccc3)C(c3ccccc3)[C@H]2C(=O)N1c1ccc(Cc2ccc(N3C(=O)[C@@H]4ON(c5ccccc5)C(c5ccccc5)[C@@H]4C3=O)cc2)cc1` (stereo partly specified), the pEC50 is < 4.88 and the pIC50 was < 4.88.
For the compound `CCOC(=O)C1(c2ccccc2)CCN(Cc2ccccc2)CC1`, the pEC50 is < 4.00 and the pIC50 is 4.28.
In the same order, the values of `O=[N+]([O-])c1ccc(N=Nc2ccc(O)c3c(O)cc(S(=O)(=O)O)cc23)cc1S(=O)(=O)O` are < 4.00 and < 4.00.
For `CCCCCCCCCCCc1c2oc3ccc(C)cc3[nH]c-2cc(=O)c1=O`, in that order: < 5.33 and < 5.33.
In the same order, the values of `C/C(=N\NC(N)=S)C(CN1CCCCC1)C(C1=C(O)c2ccccc2OC1)c1ccccc1` (stereo unspecified) are < 3.65 and 3.91.
As for `O=C1/C(=C/c2ccccc2Cl)CCc2ccccc21`, the pEC50 was < 5.00 and the negative logarithm of the IC50 (pIC50) is < 5.00.

As a reminder, the pEC50 is −log10 of the EC50, conventionally taken in molar units. Broadly, the pIC50 is the IC50 on a negative log10 scale, so that one unit is a factor of ten.
